Reference: PubChem BioAssay (NCI)
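1) Cells in 96-well plates. 2) Compound, 48 h, 5 concentrations. 3) Linear interpolation between surrounding doses. 4) Unreached endpoint = highest concentration. At the GI50, growth is halved. TGI: concentration producing complete growth inhibition.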

Tests used:
Experiment in all cases: NCI-60 cell line screen, 48 h
DLD-1 colon = test system: DLD-1 colon
XF 498 CNS = test system: XF 498 CNS
OVCAR-5 ovarian = test system: OVCAR-5 ovarian
KM20L2 colon = test system: KM20L2 colon
CAKI-1 renal = test system: CAKI-1 renal
TK-10 renal = test system: TK-10 renal
K-562 leukemia = test system: K-562 leukemia
M19-MEL melanoma = test system: M19-MEL melanoma
ACHN renal = test system: ACHN renal
SF-295 CNS = test system: SF-295 CNS
T-47D breast = test system: T-47D breast

Question: With `c1ccc([P+](CCC[P+](c2ccccc2)(c2ccccc2)c2ccccc2)(c2ccccc2)c2ccccc2)cc1` as the compound, how does the TGI (DLD-1 colon) read?
Answer: Its TGI is over 100 µM.

Question: And the TGI (XF 498 CNS)?
Answer: The TGI was 77.9 µM.

Question: What about the GI50 (OVCAR-5 ovarian) of the same compound?
Answer: Its GI50 is 34 µM.

Question: And the TGI (OVCAR-5 ovarian)?
Answer: The TGI was over 100 µM.

Question: What about the TGI (KM20L2 colon) of the same compound?
Answer: The TGI was over 100 µM.

Question: And the TGI (CAKI-1 renal)?
Answer: The TGI was over 100 µM.

Question: And the TGI (TK-10 renal)?
Answer: The TGI was over 100 µM.

Question: And the GI50 (K-562 leukemia)?
Answer: The GI50 was 4.53 µM.

Question: What about the TGI (K-562 leukemia) of the same compound?
Answer: Its TGI is over 100 µM.

Question: And the TGI (M19-MEL melanoma)?
Answer: Its TGI is over 100 µM.

Question: And the TGI (ACHN renal)?
Answer: Its TGI is over 100 µM.

Question: What about the GI50 (SF-295 CNS) of the same compound?
Answer: Its GI50 is 16.2 µM.

Question: And the TGI (SF-295 CNS)?
Answer: Its TGI is over 100 µM.

Question: And the GI50 (T-47D breast)?
Answer: The GI50 was 4.1 µM.

Question: And the TGI (T-47D breast)?
Answer: The TGI was 84.9 µM.

Question: With `CN(Cc1ccccc1)c1nc(=[N+](C)C)ss1` as the compound, how does the TGI (DLD-1 colon) read?
Answer: Its TGI is over 100 µM.

Question: What about the TGI (XF 498 CNS) of the same compound?
Answer: The TGI was over 100 µM.

Question: What about the TGI (OVCAR-5 ovarian) of the same compound?
Answer: The TGI was over 100 µM.

Question: And the TGI (KM20L2 colon)?
Answer: The TGI was over 100 µM.

Question: And the TGI (CAKI-1 renal)?
Answer: Its TGI is over 100 µM.

Question: What about the TGI (TK-10 renal) of the same compound?
Answer: Its TGI is over 100 µM.

Question: What about the TGI (K-562 leukemia) of the same compound?
Answer: Its TGI is over 100 µM.

Question: What about the TGI (M19-MEL melanoma) of the same compound?
Answer: Its TGI is over 100 µM.

Question: What about the TGI (ACHN renal) of the same compound?
Answer: Its TGI is over 100 µM.

Question: What about the TGI (SF-295 CNS) of the same compound?
Answer: The TGI was over 100 µM.

Question: What does the source list for `COC(=O)C(C(=O)C(=O)Nc1ccc(C)cc1C)c1nc2ccc([N+](=O)[O-])cc2[nH]c1=O` (stereo not given)?
Answer: TGI (DLD-1 colon): > 100 µM; TGI (XF 498 CNS): > 100 µM; TGI (OVCAR-5 ovarian): > 100 µM; TGI (KM20L2 colon): > 100 µM; TGI (CAKI-1 renal): > 100 µM; TGI (TK-10 renal): > 100 µM; TGI (K-562 leukemia): > 100 µM; TGI (M19-MEL melanoma): > 100 µM; TGI (ACHN renal): > 100 µM; TGI (SF-295 CNS): > 100 µM
